Experimental data: ChEMBL document CHEMBL1130494, “Design and synthesis of a targeted set of aromatic amino acid derivatives for identification of new lead compounds” (Bioorg Med Chem Lett, 1997)
pIC50, pKi: −log10 of the molar value.

molecular target: T1, Cholecystokinin receptor type A (Rattus norvegicus, UniProt P30551); assay: Concentration required for binding affinity to neuropeptide (CCK-A) receptor in rat pancrea
T1 sequence (P30551 whole entry): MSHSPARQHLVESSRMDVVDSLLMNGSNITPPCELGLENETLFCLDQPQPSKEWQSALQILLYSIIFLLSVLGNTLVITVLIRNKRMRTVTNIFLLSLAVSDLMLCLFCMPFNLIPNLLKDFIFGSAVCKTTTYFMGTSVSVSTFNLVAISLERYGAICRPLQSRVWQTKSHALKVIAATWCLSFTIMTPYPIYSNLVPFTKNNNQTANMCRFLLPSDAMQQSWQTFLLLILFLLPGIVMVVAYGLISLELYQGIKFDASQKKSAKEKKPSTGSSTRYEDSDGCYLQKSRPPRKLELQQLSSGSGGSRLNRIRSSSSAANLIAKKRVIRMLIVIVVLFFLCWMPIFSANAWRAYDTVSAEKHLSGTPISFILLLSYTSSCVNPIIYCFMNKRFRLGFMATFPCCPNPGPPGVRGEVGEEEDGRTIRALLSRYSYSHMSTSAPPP

Compound	pIC50
O=C(N[C@@H](Cc1c[nH]c2ccccc12)C(=O)NCCc1c[nH]c2ccccc12)OCc1ccccc1	6.35

molecular target: T2, Neuromedin-K receptor (Homo sapiens, UniProt P29371); assay: Concentration required for binding affinity to Tachykinin receptor 3 in chinese hamster ovary cells; type: cell-based, CHO
T2 sequence (P29371 whole entry): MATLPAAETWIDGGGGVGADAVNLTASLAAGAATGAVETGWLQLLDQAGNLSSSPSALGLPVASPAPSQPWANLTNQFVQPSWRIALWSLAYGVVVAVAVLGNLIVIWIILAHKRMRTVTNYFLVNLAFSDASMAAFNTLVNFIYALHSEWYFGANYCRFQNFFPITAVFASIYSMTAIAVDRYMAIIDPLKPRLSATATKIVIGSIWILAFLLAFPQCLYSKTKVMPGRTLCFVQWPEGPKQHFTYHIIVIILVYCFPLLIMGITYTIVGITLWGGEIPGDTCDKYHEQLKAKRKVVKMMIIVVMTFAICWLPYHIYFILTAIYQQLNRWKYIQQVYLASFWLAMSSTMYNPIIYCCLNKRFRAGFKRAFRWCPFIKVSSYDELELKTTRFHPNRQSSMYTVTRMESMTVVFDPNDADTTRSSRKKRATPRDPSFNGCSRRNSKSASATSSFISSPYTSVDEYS

Compound	pIC50
CC(C)OC(=O)N[C@@H](Cc1c[nH]c2ccccc12)C(=O)NCCc1c[nH]c2ccccc12	5.03

molecular target: Substance-P receptor (Homo sapiens, UniProt P25103); assay: Concentration required for binding affinity to neurokinin (NK1) receptor in human IM9 cells; type: cell-based, IM-9
Sequence (P25103 whole entry): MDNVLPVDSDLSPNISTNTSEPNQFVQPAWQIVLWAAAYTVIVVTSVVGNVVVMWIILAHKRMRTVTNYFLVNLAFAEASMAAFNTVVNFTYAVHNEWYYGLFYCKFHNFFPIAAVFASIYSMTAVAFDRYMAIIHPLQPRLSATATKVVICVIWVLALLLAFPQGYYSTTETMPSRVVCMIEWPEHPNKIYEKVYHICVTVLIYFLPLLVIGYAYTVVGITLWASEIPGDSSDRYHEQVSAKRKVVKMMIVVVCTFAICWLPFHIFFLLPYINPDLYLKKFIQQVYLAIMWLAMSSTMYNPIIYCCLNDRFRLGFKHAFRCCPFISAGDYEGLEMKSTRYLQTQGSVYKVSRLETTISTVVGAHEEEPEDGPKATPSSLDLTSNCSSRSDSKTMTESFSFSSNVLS

Compound	pIC50
CC(C)COC(=O)N[C@@H](Cc1c[nH]c2ccccc12)C(=O)NCCc1c[nH]c2ccccc12	6.37

molecular target: Neuromedin-B receptor (Homo sapiens, UniProt P28336); assay: Binding affinity for human neuromedin B(hNMB) receptor expressed in CHO cells; type: cell-based
Sequence (P28336 whole entry): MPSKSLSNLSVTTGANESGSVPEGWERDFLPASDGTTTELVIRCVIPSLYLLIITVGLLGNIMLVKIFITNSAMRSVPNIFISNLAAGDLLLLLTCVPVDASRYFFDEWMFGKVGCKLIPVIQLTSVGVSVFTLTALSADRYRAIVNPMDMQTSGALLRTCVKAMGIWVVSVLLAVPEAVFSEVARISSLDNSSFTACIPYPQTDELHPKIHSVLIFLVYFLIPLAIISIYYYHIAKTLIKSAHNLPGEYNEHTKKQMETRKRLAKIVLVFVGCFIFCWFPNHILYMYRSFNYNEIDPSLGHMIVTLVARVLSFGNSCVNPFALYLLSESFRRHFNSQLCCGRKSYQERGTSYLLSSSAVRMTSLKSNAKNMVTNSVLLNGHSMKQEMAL

Compound	pKi
CC(C)CNC(=O)[C@H](Cc1c[nH]c2ccccc12)NC(=O)OCC(=O)O	< 5.00
NCCCCCNC(=O)[C@H](Cc1c[nH]c2ccccc12)NC(=O)OCC(=O)O	< 5.00
COC(=O)N[C@@H](Cc1c[nH]c2ccccc12)C(=O)NCCC(C)C	< 5.00
CC(C)OC(=O)N[C@@H](Cc1c[nH]c2ccccc12)C(=O)NCCc1ccccc1	< 5.00
NCCCCOC(=O)N[C@@H](Cc1c[nH]c2ccccc12)C(=O)NCCc1ccccc1	< 5.00
NCCCCOC(=O)N[C@@H](Cc1c[nH]c2ccccc12)C(=O)NCCO	< 5.00
COC(=O)N[C@@H](Cc1c[nH]c2ccccc12)C(=O)NCCc1c[nH]c2ccccc12	< 5.00
O=C(N[C@@H](Cc1c[nH]c2ccccc12)C(=O)NCCO)OCCc1c[nH]c2ccccc12	< 5.00
O=C(O)COC(=O)N[C@@H](Cc1c[nH]c2ccccc12)C(=O)NCCc1c[nH]c2ccccc12	< 5.00
CC(C)CNC(=O)[C@H](Cc1c[nH]c2ccccc12)NC(=O)OCCCCN	< 5.00
O=C(O)COC(=O)N[C@@H](Cc1c[nH]c2ccccc12)C(=O)NCCc1ccccc1	< 5.00
O=C(N[C@@H](Cc1c[nH]c2ccccc12)C(=O)NCCc1c[nH]cn1)OCc1ccccc1	< 5.00
O=C(O)COC(=O)N[C@@H](Cc1c[nH]c2ccccc12)C(=O)NCCO	< 5.00
O=C(O)CCNC(=O)[C@H](Cc1c[nH]c2ccccc12)NC(=O)OCCc1c[nH]c2ccccc12	< 5.00
NCCCCCNC(=O)[C@H](Cc1c[nH]c2ccccc12)NC(=O)OCCCCN	< 5.00
CC(C)CCNC(=O)[C@H](Cc1c[nH]c2ccccc12)NC(=O)OC(C)C	< 5.00

Compound	pKi
NCCCCOC(=O)N[C@@H](Cc1c[nH]c2ccccc12)C(=O)NCCC(=O)O	< 5.00
CC(C)OC(=O)N[C@@H](Cc1c[nH]c2ccccc12)C(=O)NCCC(=O)O	< 5.00
NCCCCOC(=O)N[C@@H](Cc1c[nH]c2ccccc12)C(=O)NCCc1cnc[nH]1	< 5.00
O=C(N[C@@H](Cc1c[nH]c2ccccc12)C(=O)NCCO)OCc1ccccc1	< 5.00
NCCCCCNC(=O)[C@H](Cc1c[nH]c2ccccc12)NC(=O)OCc1ccccc1	< 5.00
CC(C)CNC(=O)[C@H](Cc1c[nH]c2ccccc12)NC(=O)OCc1ccccc1	< 5.00
O=C(O)CCNC(=O)[C@H](Cc1c[nH]c2ccccc12)NC(=O)OCc1ccccc1	< 5.00
CC(C)CCNC(=O)[C@H](Cc1c[nH]c2ccccc12)NC(=O)OCC(C)C	< 5.00
COC(=O)N[C@@H](Cc1c[nH]c2ccccc12)C(=O)NCCO	< 5.00
COC(=O)N[C@@H](Cc1c[nH]c2ccccc12)C(=O)NCC(C)C	< 5.00
CC(C)CNC(=O)[C@H](Cc1c[nH]c2ccccc12)NC(=O)OCC(C)C	< 5.00
COC(=O)N[C@@H](Cc1c[nH]c2ccccc12)C(=O)NCCc1cnc[nH]1	< 5.00
COC(=O)N[C@@H](Cc1c[nH]c2ccccc12)C(=O)NCCCCCN	< 5.00
CC(C)CCNC(=O)[C@H](Cc1c[nH]c2ccccc12)NC(=O)OCC(=O)O	< 5.00
CC(C)COC(=O)N[C@@H](Cc1c[nH]c2ccccc12)C(=O)NCCc1cnc[nH]1	< 5.00

Other lines, results leading:

pKi	Compound
< 5.00	COC(=O)N[C@@H](Cc1c[nH]c2ccccc12)C(=O)NCCC(=O)O
< 5.00	CC(C)CNC(=O)[C@H](Cc1c[nH]c2ccccc12)NC(=O)OCc1c[nH]cn1
< 5.00	CC(C)OC(=O)N[C@@H](Cc1c[nH]c2ccccc12)C(=O)NCCCCCN
7.43	CC(C)CNC(=O)C(Cc1c[nH]c2ccccc12)NC(=O)OCc1cn(C(c2ccccc2)(c2ccccc2)c2ccccc2)cn1 (stereo unspecified)
5.33	CC(C)COC(=O)N[C@@H](Cc1c[nH]c2ccccc12)C(=O)NCCc1c[nH]c2ccccc12
< 5.00	CC(C)CNC(=O)[C@H](Cc1c[nH]c2ccccc12)NC(=O)OC(C)C
< 5.00	CC(C)COC(=O)N[C@@H](Cc1c[nH]c2ccccc12)C(=O)NCCC(=O)O
< 5.00	CC(C)OC(=O)N[C@@H](Cc1c[nH]c2ccccc12)C(=O)NCCc1c[nH]c2ccccc12
< 5.00	CC(C)COC(=O)N[C@@H](Cc1c[nH]c2ccccc12)C(=O)NCCCCCN
5.41	CC(C)CCNC(=O)[C@H](Cc1c[nH]c2ccccc12)NC(=O)OCc1cnc[nH]1
< 5.00	CC(C)CCNC(=O)[C@H](Cc1c[nH]c2ccccc12)NC(=O)OCCCCN
< 5.00	CC(C)OC(=O)N[C@@H](Cc1c[nH]c2ccccc12)C(=O)NCCO
< 5.00	CC(C)OC(=O)N[C@@H](Cc1c[nH]c2ccccc12)C(=O)NCCc1c[nH]cn1
< 5.00	COC(=O)N[C@@H](Cc1c[nH]c2ccccc12)C(=O)NCCc1ccccc1
5.30	O=C(N[C@@H](Cc1c[nH]c2ccccc12)C(=O)NCCc1c[nH]cn1)OCCc1c[nH]c2ccccc12
6.01	O=C(N[C@@H](Cc1c[nH]c2ccccc12)C(=O)NCCc1c[nH]c2ccccc12)OCCc1c[nH]c2ccccc12
< 5.00	CC(C)COC(=O)N[C@@H](Cc1c[nH]c2ccccc12)C(=O)NCCO
5.05	NCCCCOC(=O)N[C@@H](Cc1c[nH]c2ccccc12)C(=O)NCCc1c[nH]c2ccccc12
5.59	O=C(NC(Cc1c[nH]c2ccccc12)C(=O)NCCc1ccccc1)OCc1cnc[nH]1 (stereo unspecified)
5.43	O=C(N[C@@H](Cc1c[nH]c2ccccc12)C(=O)NCCc1c[nH]c2ccccc12)OCc1c[nH]cn1
5.46	CC(C)CNC(=O)[C@H](Cc1c[nH]c2ccccc12)NC(=O)OCCc1c[nH]c2ccccc12
5.37	CC(C)COC(=O)N[C@@H](Cc1c[nH]c2ccccc12)C(=O)NCCc1ccccc1
5.11	NCCCCCNC(=O)[C@H](Cc1c[nH]c2ccccc12)NC(=O)OCCc1c[nH]c2ccccc12
5.55	O=C(N[C@@H](Cc1c[nH]c2ccccc12)C(=O)NCCc1c[nH]c2ccccc12)OCc1ccccc1
5.57	O=C(N[C@@H](Cc1c[nH]c2ccccc12)C(=O)NCCc1ccccc1)OCc1c[nH]cn1
5.21	CC(C)CCNC(=O)[C@H](Cc1c[nH]c2ccccc12)NC(=O)OCc1ccccc1
5.96	O=C(N[C@@H](Cc1c[nH]c2ccccc12)C(=O)NCCc1ccccc1)OCCc1c[nH]c2ccccc12
5.57	CC(C)CCNC(=O)[C@H](Cc1c[nH]c2ccccc12)NC(=O)OCCc1c[nH]c2ccccc12
5.41	CC(C)CCNC(=O)C(Cc1c[nH]c2ccccc12)NC(=O)OCc1c[nH]cn1 (stereo unspecified)
5.59	O=C(N[C@@H](Cc1c[nH]c2ccccc12)C(=O)NCCc1ccccc1)OCc1ccccc1

molecular target: T3, Substance-K receptor (Mesocricetus auratus, UniProt P51144); assay: Concentration required for binding affinity to neurokinin (NK2) receptor in hamster urinary bladder
T3 sequence (P51144 whole entry): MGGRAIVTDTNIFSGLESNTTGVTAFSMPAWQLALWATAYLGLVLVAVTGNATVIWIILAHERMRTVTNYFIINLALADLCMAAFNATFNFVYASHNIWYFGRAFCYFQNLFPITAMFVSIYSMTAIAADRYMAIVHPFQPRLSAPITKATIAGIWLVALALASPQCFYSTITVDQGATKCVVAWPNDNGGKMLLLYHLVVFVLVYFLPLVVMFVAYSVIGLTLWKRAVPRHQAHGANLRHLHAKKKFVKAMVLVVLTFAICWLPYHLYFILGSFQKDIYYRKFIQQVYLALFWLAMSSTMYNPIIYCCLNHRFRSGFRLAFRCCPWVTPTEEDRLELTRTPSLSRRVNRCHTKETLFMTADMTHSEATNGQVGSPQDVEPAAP

Compound	pIC50
O=C(N[C@@H](Cc1c[nH]c2ccccc12)C(=O)NCCc1ccccc1)OCc1ccccc1	5.49

molecular target: T4, Gastrin/cholecystokinin type B receptor (Mus musculus, UniProt P56481); assay: Concentration required for binding affinity to neuropeptide (CCK-B) receptor in mouse cerebral cortex; type: tissue-based
T4 sequence (P56481 whole entry): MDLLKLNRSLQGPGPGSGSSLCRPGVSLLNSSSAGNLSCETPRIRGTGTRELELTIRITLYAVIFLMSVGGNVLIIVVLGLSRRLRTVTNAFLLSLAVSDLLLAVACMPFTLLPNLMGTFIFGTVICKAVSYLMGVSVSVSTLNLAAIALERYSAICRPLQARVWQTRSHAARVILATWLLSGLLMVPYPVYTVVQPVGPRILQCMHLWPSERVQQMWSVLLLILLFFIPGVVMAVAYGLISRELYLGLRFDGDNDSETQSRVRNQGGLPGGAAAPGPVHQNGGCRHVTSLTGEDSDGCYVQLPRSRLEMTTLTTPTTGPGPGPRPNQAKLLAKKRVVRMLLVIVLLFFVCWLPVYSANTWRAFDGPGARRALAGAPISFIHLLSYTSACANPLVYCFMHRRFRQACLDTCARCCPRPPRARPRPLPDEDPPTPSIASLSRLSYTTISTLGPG

Compound	pIC50
CC(C)CCNC(=O)[C@H](Cc1c[nH]c2ccccc12)NC(=O)OCc1ccccc1	5.67
